Source: ChEMBL document CHEMBL1138394, “A novel butyrolactone derivative inhibited apoptosis and depressed integrin beta4 expression in vascular endothelial cells” (2007)
Active and inactive are the calls of the source. The rule behind the calls is not given here.

Legend:
[1] = system: Endothelial cell; assay: Prevention of serum deprivation-induced reduction of vascular endothelial cell viability after 24 hrs by MTT assay; assay type: functional, cell-based; details: Homo sapiens
[2] = system: Endothelial cell; assay: Prevention of FGF2 deprivation-induced reduction of vascular endothelial cell viability after 24 hrs by MTT assay; assay type: functional, cell-based; details: Homo sapiens
[3] = system: Endothelial cell; assay: Inhibition of DNA fragmentation in vascular endothelial cells at 40 ug/ml after 24 hrs; assay type: functional, cell-based; details: Homo sapiens
[4] = Inhibition of serum deprivation-induced vascular endothelial cell apoptosis assessed as apoptotic cell proportion at 40 ug/ml after 24 hrs by TUNEL assay; assay type: functional, Homo sapiens; parameters: scale not given: the % may be the effect or the level left
[5] = Inhibition of FGF2 deprivation-induced vascular endothelial cell apoptosis assessed as apoptotic cell proportion at 40 ug/ml after 24 hrs by TUNEL assay; assay type: functional, Homo sapiens; parameters: scale not given: the % may be the effect or the level left
[6] = Inhibition of serum deprivation-induced integrin beta-4 expression in vascular endothelial cells at 40 ug/ml after 24 hrs relative to control; assay type: functional, Homo sapiens, Endothelial cell
[7] = Inhibition of FGF2 deprivation-induced integrin beta-4 expression in vascular endothelial cells at 40 ug/ml after 24 hrs relative to control; assay type: functional, Homo sapiens, Endothelial cell
[8] = Inhibition of serum deprivation-induced ROS level in vascular endothelial cells at 30 ug/ml after 24 hrs relative to control; assay type: functional, Homo sapiens, Endothelial cell
[9] = Inhibition of FGF2 deprivation-induced ROS level in vascular endothelial cells at 30 ug/ml after 24 hrs relative to control; assay type: functional, Homo sapiens, Endothelial cell
[10] = system: Endothelial cell; assay: Prevention of serum deprivation-induced reduction of vascular endothelial cell viability after 48 hrs by MTT assay; assay type: functional, cell-based; details: Homo sapiens
[11] = system: Endothelial cell; assay: Prevention of FGF2 deprivation-induced reduction of vascular endothelial cell viability after 48 hrs by MTT assay; assay type: functional, cell-based; details: Homo sapiens

With `O=C1OC(COc2ccccc2[N+](=O)[O-])CC1Cc1ccccc1` (stereo unspecified) the Activity [1] was “Dose-dependent effect”, the Activity [2] was “Dose-dependent effect” and the Activity [3] was “Active”. The Activity [4] was 9.89%, the Activity [5] was 9.89% and the Activity [6] was 33.8. It also gave an Activity [7] of 33.8, an Activity [8] of 7.95 and an Activity [9] of 7.95. For the same molecule, the Activity [10] was “Dose-dependent effect” and the Activity [11] was “Dose-dependent effect”.
